The text below walks through data of patent publication US20220154153A1, “NEW INHIBITORS OF LRRK2/PP1 INTERACTION” (Université de Paris, priority 2019, published 2022).

The test system of experiment [1] is MDA-MB231 cells. Put plainly: Detection of apoptosis by Annexin-V-FITC staining in cancer cells. The note with it: 25 μM peptide, 24 h of treatment. It is filed as cell-based, human. On the procedure: Detection of Apoptosis by Annexin-V-FITC Staining
Apoptosis was determined using Annexin-V FITC (eBiosciences) as described by the manufacturer. Briefly, cells were washed in 1× binding buffer, centrifuged and resuspended in 100 μl of 1× binding buffer containing Annexin-V FITC and propidium iodide. After incubation for 15 min, cells were analyzed by flow cytometry. Data acquired by FACS Canto were analyzed with Diva 60 software. Each condition was analyzed in triplicate. The effect of peptide treatment was compared to untreated control cells.

For another experiment, the system named is LRRK2/PP1 interaction. Put plainly: In vitro competition assay of LRRK2/PP1 interaction (LRRK2 immunoprecipitates from MDA-MB231 lysates, anti-PP1 Western blot). It is filed as binding, human. Conditions: 1 mM peptide, 30 min, room temperature; compared with non-competed immunoprecipitates. On the procedure:
In Vitro Protein/Protein Interaction Competition
The PP1/LRRK2 interaction was competed using the peptides of the invention. Lysates from MDA-MB231 cells were immunoprecipitated with anti-LRRK2 antibody (overnight, 4° C.) and protein A/G Sepharose was added for 1 h at 4° C. The PP1/LRRK2 interaction was competed with 1 mM of the peptide for 30 min at room temperature. After several washing steps, immunoprecipitates were transferred to nitrocellulose and blotted with anti PP1 antibody (Santa Cruz Biotechnology). As internal control, the blot was also blotted with anti-LRRK2 antibody (Invitrogene).
Immunoprecipitation and Western Blotting
Cells (5×10^6) were lysed for 20 min at 4° C. in lysis buffer (50 mM Tris pH8, 1% NP40, 137 mM NaCl, 1 mM MgCl2, 1 mM CaCl2), 10% glycerol and protease inhibitor mixture). Lysates (500 μg) were immunoprecipitated with the appropriated antibody overnight at 4° C. and protein A/G sepharose was added for 1 h at 4° C. After washing with 1×TBST (20 mM Tris HCl pH7.5, 150 mM NaCl, 0.05% Tween 20) immunoprecipitates were separated by SDS-PAGE, transferred to nitrocellulose, blocked (5% non-fat dry milk in TBST) and incubated with the primary antibody (Santa Cruz Biotehnology). The membrane was washed and incubated with PO-conjugates secondary antibody (Dako). Protein detection was performed using the ECL system.
(In general: In western blotting, separated proteins are transferred to a membrane and probed.)

The next experiment has as its system PBMC from healthy donors. Description: Internalization of FITC-labelled peptides in PBMC from healthy donors (FACS). It is filed as cell-based, human. The note with it: 4 h, 37° C.; for FITC labelled cells detected (FACS): PBMC of healthy human, 50 μM FITC labelled peptide. On the procedure:
(§1) Isolation and Culture of Primary Cells
(§2) Fresh blood from healthy donors (HD) was obtained from Etablissement Francais du Sang. Chronic lymphocytic leukemia (CLL) patient samples were obtained from the Department of Hematology. Peripheral blood mononuclear cells (PBMC) from HD and CLL patients were prepared by Ficoll gradient centrifugation. Cells were maintained in RPMI 1640 supplemented with 10% of FCS, 1% non-essential amino acids, 1% Hepes, 1% sodium pyruvate and 1% glutamine. All the experimental protocols as well as the human blood samples isolation were approved by the Ethical Committee of the Hospital in accordance with the National Guide of the Ministry of Health.
(§3) In addition to cell lines, the internalization of the new peptides according to the invention was further tested in peripheral blood mononuclear cells (PBMC) from healthy donors and chronic lymphocytic leukemia (CLL) patients. PBMC from both were incubated with 50 μM of both peptides for 4 h at 37° C.

For experiment [2], the system named is MDA-MB231 cells. Put plainly: Internalization of FITC-labelled peptides in MDA-MB231 cell line (FACS). It is filed as cell-based, human. The note with it: different concentrations, 4 h, compared to peptide 13. On the procedure: Quantification of Cellular Internalization
Human cell line MDA-MB231 was seeded in 24 well plate (1×10^5 cells/well) and treated with different concentrations of FITC-labelled peptides for different periods of time. After treatment, cells were harvested and washed twice with PBS to remove the extracellular unbound peptide and resuspended in 200 μl of PBS. FITC fluorescence intensity of internalized peptides was measured by flow cytometry. Untreated cells were used as control.

The next experiment deals with PBMC from CLL patients. Description: Internalization of FITC-labelled peptides in PBMC from chronic lymphocytic leukemia (CLL) patients (FACS). Conditions: 4 h, 37° C.; for FITC labelled cells detected (FACS): PBMC of CLL, 50 μM FITC labelled peptide. It is filed as cell-based, human. On the procedure:
as §1, §2, §3

Entries after “also recorded” stand apart in the source; their conditions may differ.

Turning to “VKKKKIKAEIKI (Synthetic construct vectorization (or carrier) peptide disclosed in WO/2016/156536) [shuttle, optimized cell penetrating peptide used alone as control, reference compound]”, the “Apoptosis induction (Annexin-V)” value in the experiment with MDA-MB231 cells [1] was “do not show apoptosis”. Also, the “PP1 detected in LRRK2 immunoprecipitates after competition with peptide (Western blot)” value (“PP1 detected in LRRK2 immunoprecipitates” below) in the experiment with LRRK2/PP1 interaction is “PP1 is detected; also recorded: no difference”.

In the case of “VKKKKIKAEIKIGFWSRLINRLLEI (Synthetic construct Seq_29 fused to seq_8) [peptide 14]”, the “FITC labelled cells detected (FACS)” value with PBMC from healthy donors and with PBMC from CLL patients was “majority of FITC labelled cells is detected” throughout. In addition, the “Fluorescence intensity of internalization compared with peptide 13” value with PBMC from healthy donors (healthy donors PBMC, 50 μM) is on record as “slightly higher fluorescence intensity”; with PBMC from CLL patients (CLL patients PBMC, 50 μM), “slightly higher fluorescence intensity”. Also, the “Fluorescence intensity of internalization (FACS)” value in the experiment on MDA-MB231 cells [2] was “higher”. Moreover, the “Apoptosis induction (Annexin-V)” value in the experiment with MDA-MB231 cells [1] is “strong level of apoptosis”. The “PP1 detected in LRRK2 immunoprecipitates” value in the experiment on LRRK2/PP1 interaction is given as “important decrease in PP1 detected”.

As for “VKKKKIKAEIKIPMGFWSRLINRLLEISPY (Synthetic construct Seq_29 fused to seq_7) [peptide 13]”, the “FITC labelled cells detected (FACS)” value in the experiment with PBMC from healthy donors and in the experiment on PBMC from CLL patients was “majority of FITC labelled cells is detected” each time. Further, the “Apoptosis induction (Annexin-V)” value in the experiment on MDA-MB231 cells [1] is “strong level of apoptosis”. The “PP1 detected in LRRK2 immunoprecipitates” value in the experiment with LRRK2/PP1 interaction is “low detected; also recorded: important decrease in PP1 detected”.
